According to patent publication US20240009256A1, “USE OF PROBIOTIC BACTERIUM-DERIVED EXTRACELLULAR MICRO- AND/OR NANOPARTICLES FOR THE TREATMENT OF DISEASE” (University of Louisville Research Foundation, Inc., priority 2020, published 2024):

Assays:
[1] = test system: lamina propria lymphocytes (LPLs); assay: AhR signaling in lamina propria lymphocytes; assay type: cell-based, mouse; conditions: AhR inhibitor 10 μM
Caco-2 cells = assay: Tight junction, Cyp1a1 and Nrf2 expression in Caco-2 cells; assay type: cell-based, human
Protocol: (§1) Real-time quantitative PCR Total mRNA was extracted from mouse liver and intestine tissues using Trizol reagent (Life Technologies, Carlsbad, California, United States of America) according to the manufacturer's instruction and reverse-transcribed using cDNA Supermix (QuantaBio, Beverly, Massachusetts, United States of America). 18S and Gapdh were used as internal controls. Real-time qPCR was performed on an ABI 7300 fast real-time PCR thermocycler, where SYBR green PCR Master Mix (Applied Biosystems, Foster City, California, United States of America) was used. The relative gene expression was determined by the ΔΔCT method.
Western Blotting. Protein was extracted from frozen intestine tissues. Western blotting was performed as described in (Shao et al. (2018) Intestinal HIF-1α deletion exacerbates alcoholic liver disease by inducing intestinal dysbiosis and barrier dysfunction. Journal of Hepatology 69:886-895). Antibodies used for western blotting for proteins ZO-1, Occludin, and Claudin-1 were from Cell Signaling (Danvers, Massachusetts, United States of America). Nrf-2, β-actin and Histone H3 antibodies were purchased from Abcam (Cambridge, Massachusetts, United States of America). For western blotting in Caco-2 cell derived NPs and LDNPs, CD 63 antibody from System Bioscience (Palo Alto, California, United States of America) was used.
Cell culture. Mouse macrophages RAW 264.7 and the human intestinal epithelial cells Caco-2 were maintained in DMEM-high glucose and EMEM-high glucose (Corning; 10-009CV) respectively. The medium was supplemented with 10% fetal bovine serum, 1X penicillin-streptomycin solution (100U/ml penicillin, and 100 μg/ml streptomycin; Sigma Aldrich) in a humidified atmosphere (5% CO2, 95% air, 37° C.). Peritoneal macrophages and bone marrow-derived macrophages (BMDM) were isolated from mice as described in (Ying et al. (2013) Investigation of Macrophage Polarization Using Bone Marrow Derived Macrophages. Journal of Visualized Experiments 76:50323.). Isolated BMDM were then cultured in modified DMEM medium with macrophage colony-stimulating factor (M-CSF), which is a cytokine that directs cell differentiation. Cells were utilized for experimentation at 70-80% confluence. RAW264.7, peritoneal macrophages (PMs) and bone marrow-derived macrophages (BMDMs) were pretreated with LDNPs (0.2 μg/ml for 20 hours) and then treated with E. coli-derived lipopolysaccharides (LPS; O55:B5; Sigma) at 100 ng/mL concentration for 4 hours. Caco-2 cells at 70-80% confluence were treated with LDNPs (0.2 μg/ml), I3A (0.1 mM), the AhR inhibitor, CH-223191 (10 μM) or Nrf2 inhibitor, ML385 (5 μM) for 24 hours. Lamina propria lymphocytes (LPLs) were treated with LDNPs (0.2 μg/ml), I3A (0.1 mM) or the AhR inhibitor, CH223191 (10 μM) for 24 hours.
Measurement of Cvp1A1 enzyme activity in vitro. Caco-2 cells (50,000 cells/well) were plated in a 48-well plate. Cells were then treated with LDNPs (0.2 μg/ml) or Indole-3-aldehyde (I3A, 0.1 mM) for 24 hours. After treatment, cells were washed to remove any residual LDNPs or I3A, then the wells were replenished with fresh medium containing Cyp1A1 substrate as per the protocol provided with a P450-GLO™ CYP1A1 Assay System brand kit (Promega Corporation, Madison, Wisconsin, United States of America) for 3 hours. After incubation, 25 μl of culture medium was removed from each well and transferred to a 96-well white opaque plate and 25 μl of luciferin detection reagent was added to initiate the luminescence reaction and plate was incubated at room temperature for 20 minutes. After incubation, luminescence was recorded using a luminometer. The data were reported as foldchange over vehicle treatment.

AhR = assay: ALD mouse model with AhR inhibitor CH223191 co-administration; assay type: in vivo
Protocol: Animals and treatments. C57BL/6J mice (6-8 weeks of age) from Jackson Laboratory (Bar Harbor, Maine, United States of America) were maintained at 22° C. with a 12 hour light/dark cycle and initially had free access to a normal chow diet and tap water. Mice were then fed the Lieber DeCarli Diet containing 5% alcohol (w/v) (Alcohol-fed, AF) or isocaloric maltose dextrin (Pair-fed, PF). For the AF groups, mice were initially fed the control Lieber-DeCarli liquid diet (Bio-Serve, Flemington, New Jersey, United States of America) for 5 days to acclimate to the liquid diet. […] Mice in PF group were fed isocaloric maltose dextrin in substitution for alcohol in the liquid diet. On experimental Day 10, a bolus of EtOH (5 g/kg body weight) was given to AF mice by gavage 9 hours before harvesting, while mice in PF groups received a gavage of isocaloric maltose dextrin (10d+1b model). LDNPs were administered to mice in the last 3 days by daily gavage of 200 μL of LDNPs (50 μg protein content). AhR inhibitor, CH223191 (Sigma-Aldrich, St. Louis, Missouri, United States of America) was gavaged at […] in last three days. Control mice were gavaged with an equal volume of control vehicle (PBS).
Whether the beneficial effects of LDNPs in ALD were mediated by the intestinal AhR pathway was tested by administrating the AhR inhibitor CH223191 to alcohol-fed mice. […] Importantly, the suppressive effect on hepatic fat by LDNP treatment was blunted when CH223191 was co-administered.

EGFR = target: T1, EGFR (Mus musculus, UniProt Q01279); assay: LDNPs-mediated EGFR activation in LPS-treated Raw264.7 cells with AG1478; assay type: cell-based; conditions: AG1478 150 nM
T1 construct: endogenous in cells; host or cells: Raw264.7
T1 sequence (Q01279 25-1210): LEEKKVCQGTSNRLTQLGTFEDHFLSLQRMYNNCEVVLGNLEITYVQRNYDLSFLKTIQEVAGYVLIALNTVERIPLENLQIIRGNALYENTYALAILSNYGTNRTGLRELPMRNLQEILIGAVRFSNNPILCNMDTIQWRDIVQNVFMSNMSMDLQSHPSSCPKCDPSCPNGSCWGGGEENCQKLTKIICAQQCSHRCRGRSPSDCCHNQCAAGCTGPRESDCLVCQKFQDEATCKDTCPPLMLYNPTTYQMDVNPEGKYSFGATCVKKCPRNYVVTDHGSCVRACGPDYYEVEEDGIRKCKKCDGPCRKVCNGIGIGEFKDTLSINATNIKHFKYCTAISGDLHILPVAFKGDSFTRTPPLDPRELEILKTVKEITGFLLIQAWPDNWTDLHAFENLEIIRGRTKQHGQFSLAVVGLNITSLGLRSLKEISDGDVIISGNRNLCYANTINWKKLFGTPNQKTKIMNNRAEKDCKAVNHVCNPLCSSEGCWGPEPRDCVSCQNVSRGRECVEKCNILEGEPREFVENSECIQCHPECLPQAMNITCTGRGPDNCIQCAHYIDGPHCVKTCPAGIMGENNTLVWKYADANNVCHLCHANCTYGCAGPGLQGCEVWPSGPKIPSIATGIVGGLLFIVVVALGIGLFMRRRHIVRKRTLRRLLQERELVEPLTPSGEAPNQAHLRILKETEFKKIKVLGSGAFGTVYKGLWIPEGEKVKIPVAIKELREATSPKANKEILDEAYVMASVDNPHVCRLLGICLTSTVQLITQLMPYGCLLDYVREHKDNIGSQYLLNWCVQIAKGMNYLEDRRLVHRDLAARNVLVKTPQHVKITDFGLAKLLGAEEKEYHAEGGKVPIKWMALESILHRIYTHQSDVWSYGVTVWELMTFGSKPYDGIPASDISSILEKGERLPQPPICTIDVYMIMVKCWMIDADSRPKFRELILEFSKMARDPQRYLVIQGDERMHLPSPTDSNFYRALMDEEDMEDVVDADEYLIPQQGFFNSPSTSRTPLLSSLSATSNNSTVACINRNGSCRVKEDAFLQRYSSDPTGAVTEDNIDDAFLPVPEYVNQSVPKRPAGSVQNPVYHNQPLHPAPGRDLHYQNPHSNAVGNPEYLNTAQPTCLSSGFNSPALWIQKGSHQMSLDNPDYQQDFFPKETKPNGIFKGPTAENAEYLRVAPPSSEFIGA
Protocol: as §1
Raw264.7 cells were pretreated with LDNPs (0.2 μg/ml) or the EGFR inhibitor AG1478 (150 nM) for 20 hours and then treated with LPS for 4 hours to induce inflammation response as depicted in the top panel of the FIG. 13A. The bottom panel of FIG. 13A is a representative western blot of phosphorylated EGFR (P-EGFR Tyr 1068), Total-EGFR, PI3K, phosphorylated Akt (P-Akt), total-Akt, phosphorylated NF-κB (P-NF-κB), and β-actin showing that expression of several of these proteins were modulated by LDNP treatment.

[2] = alcohol-fed, CH223191 co-administered
[3] = alcohol-fed, co-fed with CH223191
[4] = Caco-2, LDNPs 0.2 μg/ml, I3A 0.1 mM, 24 hours

Q: Which results are given for `Cc1ccccc1N=Nc1ccc(NC(=O)c2ccnn2C)c(C)c1` [CH223191]?
A: LDNPs-induced Cyp1a1 mRNA expression [1]: completely inhibited; LDNPs-induced Il22 mRNA expression [1]: completely inhibited; LDNPs-induced upregulation of IL-22 protein [1]: completely inhibited; LDNPs-induced Cyp1a1 mRNA expression ([1]; listed as CH229131): blocked; LDNPs-induced Il22 mRNA expression ([1]; listed as CH229131): blocked; I3A-induced Cyp1a1 activity (Caco-2 cells): blocked; I3A-induced Cyp1a1 mRNA expression (Caco-2 cells): blocked; LDNP-induced Cyp1a1 activity (Caco-2 cells): blocked; LDNP-induced Cyp1a1 mRNA expression (Caco-2 cells): blocked; LDNP-induced Nrf2 mRNA expression (Caco-2 cells): blocked; LDNP-induced Nrf2 protein expression (Caco-2 cells): blocked; ileum Nqo1 mRNA expression (AhR; AF mice, agent alone): reduced; ileum Nrf2 mRNA expression (AhR; AF mice, agent alone): reduced; LDNP-induced increase of IL-22 protein (AhR; [2]): completely inhibited; LDNP-induced increase of Il22 mRNA (AhR; [2]): completely inhibited; suppressive effect of LDNP treatment on hepatic fat (AhR; [2]): blunted; upregulation of Reg3g by LDNPs (AhR; [2]): blocked; ileum Cyp1a1 mRNA expression (AhR; alcohol-fed, LDNPs gavaged with the inhibitor): no change; IL-22 protein expression (AhR; alcohol-fed, agent alone): reduced; hepatic bacteria load (AhR; alcohol-fed, agent alone): significantly increased; hepatic fat accumulation (AhR; alcohol-fed, agent alone): significantly increased; ileum Cyp1a1 mRNA expression (AhR; alcohol-fed, agent alone): reduced; ileum Il22 mRNA expression (AhR; alcohol-fed, agent alone): reduced; ileum Reg3g mRNA expression (AhR; alcohol-fed, agent alone): reduced; serum ALT (AhR; alcohol-fed, agent alone): slightly increased; serum AST (AhR; alcohol-fed, agent alone): slightly increased; effects of LDNPs on serum ALT (AhR; [3]): blocked; effects of LDNPs on serum AST (AhR; [3]): blocked; effect of LDNPs on hepatic bacteria load (AhR; alcohol-fed, inhibitor co-administered): blocked

Q: For `Cc1ccccc1C(=O)N1CCc2cc(-c3nc(NC(=O)Cc4ccc5c(c4)OCO5)sc3C)ccc21` [ML385], which “LDNP-induced Cyp1a1 activity” value (Caco-2 cells) is on record?
A: Its value is “not”.

Q: What about the “LDNP-induced Cyp1a1 mRNA expression” value (Caco-2 cells) of the same compound?
A: The value was “blocked”.

Q: And the “LDNP-induced Nrf2 mRNA expression” value (Caco-2 cells)?
A: The value was “completely inhibited”.

Q: What about the “LDNP-induced Nrf2 protein expression” value (Caco-2 cells) of the same compound?
A: The value was “completely inhibited”.

Q: For `COc1cc2ncnc(Nc3cccc(Cl)c3)c2cc1OC` [AG1478], which “LDNP-mediated reduction of IL-1β mRNA” value (EGFR) is on record?
A: Its value is “inhibited”.

Q: And the “LDNP-mediated reduction of TNF-α mRNA” value (EGFR)?
A: Its value is “inhibited”.

Q: Which results are given for `O=Cc1c[nH]c2ccccc12` [I3A, indole-3-aldehyde]?
A: protein expression of tight junction proteins (Caco-2 cells; Caco-2, LDNPs 0.2 μg/ml, I3A 0.1 mM): increased; Cyp1a1 activity (Caco-2 cells; [4]): markedly increased; Cyp1a1 mRNA expression (Caco-2 cells; [4]): markedly increased
